{
  "source": "paper PMC4236622",
  "about": "(Cancer Chemotherapy and Pharmacology, 2014)",
  "key": {"[1]": {"assay": "Pharmacokinetics across nonclinical species (mouse, rat, dog)", "details": "rats and dogs, after conventional irinotecan", "procedure": "Blood samples were collected via a peripheral vein into blood collection tubes containing 1/20th the plasma volume of a dimethyl sulfoxide solution containing 50 mM phenylmethyl sulfonyl fluoride and 1 % acetic acid (v/v). Plasma was harvested by centrifugation at 2,100×g for 20 min at 4 °C. Plasma was further stabilized by addition of 1 % acetic acid and stored at −80 °C until assayed.\nTumor tissue samples were homogenized in a 9× volume of homogenization buffer (containing sodium fluoride, phenylmethyl sulfonyl fluoride, and sodium dodecyl sulfate) prior to extraction of analytes. SN38 from tumor homogenate was extracted using protein precipitation with acetonitrile and quantified by LC–MS/MS using SN38 calibration standards. LC–MS/MS used a Synergy Hydro, 3 µm, 50 × 2.0-mm column, operated at 50 °C, at a flow rate of 0.4 mL/min with a gradient consisting of 0.1 % formic acid in water and 0.1 % formic acid in acetonitrile, coupled to an API 4000 (Applied Biosystems). […] The predicted mouse and measured rat and dog concentration–time profiles were analyzed with noncompartmental methods within WinNonlin (Professional version 5.2; Pharsight Corporation, Mountain View, CA) to estimate customary PK parameters."}, "[2]": {"parameters": "method as in PMID 1651156", "details": "cited from earlier work"}, "[3]": {"details": "humans, cited from earlier work; for time post-dose at which concentrations fall below 0.1 ng/mL: following irinotecan infusion (350 mg/m2 every 21 days), reference not given"}, "NCI-H460 lung tumor [4]": {"system": "NCI-H460 lung tumor", "assay": "Tumor PK/PD study in NCI-H460 tumor-bearing mice (tumor volume, inhibitory Emax model)", "assay_type": "in vivo, mouse", "details": "Emax fixed at 1", "method": "(§1) The length and width of each tumor was recorded 2–3 times a week, and the corresponding tumor volume was estimated using the formula L × W ^2/2 = mm^3, where L and W refer to the larger and smaller perpendicular tumor dimensions, respectively. Animals found moribund or with tumors ≥4,000 mm^3, ulcerated, or sloughed off were euthanized prior to scheduled termination. […] Plasma was harvested, frozen on dry ice, and stored at −80 °C until assayed. Immediately following blood collection, animals were euthanized, and the tumors were excised, frozen in liquid nitrogen, and stored at −80 °C until assayed.\n(§2) Inhibitory E max response PK/PD models based on the Gompertz equation [32] were developed for both tumor types to represent the rate of tumor growth as a function of tumor SN38 concentration. A schematic diagram of the PK/PD model is shown in Online Resource 1. […] The PD parameter values k gr (tumor intrinsic growth rate; day^−1), Limit (limit of tumor growth), and EC 50 (half-maximal effective inhibitory concentrations; μg/g) were optimized using Runge–Kutta 4 integration and the multiple-fit curve fitting module of Berkeley Madonna."}, "HT29 colon tumor [5]": {"system": "HT29 colon tumor", "assay": "Tumor PK/PD study in HT29 tumor-bearing mice (tumor volume, inhibitory Emax model)", "assay_type": "in vivo, mouse", "details": "Emax fixed at 1", "method": "as §1, §2"}, "A2780 ovarian tumor": {"system": "A2780 ovarian tumor", "assay": "Activity in A2780 ovarian tumor xenograft model", "assay_type": "in vivo, mouse", "source_text": "(§3) Tumor volume was estimated as described above.\n(§4) Studies were terminated on Days 59 (HT29), 61 (NCI-H460), 72 (MCF-7), 60 (A2780, q7dx3), 76 (A2780 qdx1), and 84 (NCI-N87).\n(§5) Kaplan–Meier plots were constructed to show the percentage of animals remaining in the study to perform the logrank test. Median tumor growth curves show group median tumor volumes as a function of time. When an animal exited the study due to tumor size, the final tumor volume recorded for the animal was included with the data used to calculate the group median tumor volume at subsequent time points."}, "NCI-N87 gastric tumor": {"system": "NCI-N87 gastric tumor", "assay": "Activity in NCI-N87 gastric tumor xenograft model", "assay_type": "in vivo, mouse", "source_text": "as §3, §4, §5"}, "MCF-7 breast tumor": {"system": "MCF-7 breast tumor", "assay": "Activity in MCF-7 breast tumor xenograft model", "assay_type": "in vivo, mouse", "source_text": "as §3, §4, §5"}, "[6]": {"assay": "Plasma and tumor pharmacokinetics in tumor-bearing mice (HT29 and NCI-H460, model not distinguished)", "details": "after conventional irinotecan 40 mg/kg iv Days 0, 4, 8", "method": "as §1"}, "NCI-H460 lung tumor [7]": {"system": "NCI-H460 lung tumor", "assay": "Activity in NCI-H460 lung tumor xenograft model", "assay_type": "in vivo, mouse", "details": "for Median TTE: endpoint 1,500 mm3; for Survivors not reaching tumor endpoint: endpoint 1,500 mm3 or Day 57; for Tumor regression, Complete / Tumor regression, Partial: NCI-H460 lung tumor model, animals/group", "source_text": "as §3, §4, §5"}, "[8]": {"assay": "Tolerability in mouse xenograft studies (body weight, mortality)", "assay_type": "in vivo", "details": "all doses, all xenograft models", "source_text": "as §3"}, "HT29 colon tumor [9]": {"system": "HT29 colon tumor", "assay": "Activity in HT29 colon tumor xenograft model", "assay_type": "in vivo, mouse", "details": "for Median TTE: endpoint 1,000 mm3; for Survivors not reaching tumor endpoint: endpoint 1,000 mm3 or Day 73; for Tumor regression, Complete / Tumor regression, Partial: HT29 colon tumor model, animals/group", "source_text": "as §3, §4, §5"}, "[10]": {"details": "mice; no reference given; cited from earlier work"}, "[11]": {"details": "A2780 ovarian tumor model, 100 mg/kg Q7dx3 iv, animals/group"}, "[12]": {"details": "NCI-N87 gastric tumor model, 60 mg/kg Q7dx3 iv, animals/group"}, "[13]": {"details": "MCF-7 breast tumor model, 40 mg/kg Q4dx3 iv, animals/group"}},
  "data": [
    {"smiles": "CCc1c2c(nc3ccc(O)cc13)-c1cc3c(c(=O)n1C2)COC(=O)[C@]3(O)CC", "note": "[SN38, 10-hydroxy-7-ethyl camptothecin]", "values": [
      {"measurement": "time post-dose at which plasma SN38 was undetectable", "setting": "[1]", "result": 24, "unit": "h"},
      {"measurement": "cytotoxicity in vitro, potency compared with irinotecan", "setting": "[2]", "result": "100- to 1,000 fold"},
      {"measurement": "t1/2 of SN38", "setting": "[3]; conventional irinotecan", "result": "24 to 47", "unit": "h"},
      {"measurement": "time post-dose at which concentrations fall below 0.1 ng/mL", "setting": "[3]", "result": "5 to 7", "unit": "days"},
      {"measurement": "EC50 (half-maximal effective inhibitory tumor SN38 concentration)", "setting": "NCI-H460 lung tumor [4]", "result": 1.2, "unit": "µg/g"},
      {"measurement": "EC50 (half-maximal effective inhibitory tumor SN38 concentration)", "setting": "HT29 colon tumor [5]", "result": 0.20, "unit": "µg/g"}
    ]},
    {"smiles": "CCc1c2c(nc3ccc(OC(=O)N4CCC(N5CCCCC5)CC4)cc13)-c1cc3c(c(=O)n1C2)COC(=O)[C@]3(O)CC", "note": "[Irinotecan]", "values": [
      {"measurement": "TGD", "setting": "A2780 ovarian tumor; A2780, 100 mg/kg Q7dx3 iv", "result": 15, "unit": "days"},
      {"measurement": "Median TTE", "setting": "A2780 ovarian tumor; A2780, 100 mg/kg Q7dx3 iv, endpoint 2,000 mm3", "result": 29, "unit": "days"},
      {"measurement": "Survivors not reaching tumor endpoint", "setting": "A2780 ovarian tumor; A2780, 100 mg/kg Q7dx3 iv, endpoint 2,000 mm3 or Day 60", "result": "0/10"},
      {"measurement": "Tumor regression, Complete", "setting": "A2780 ovarian tumor; [11]", "result": "0/10"},
      {"measurement": "Tumor regression, Partial", "setting": "A2780 ovarian tumor; [11]", "result": "0/10"},
      {"measurement": "TGD", "setting": "NCI-N87 gastric tumor; NCI-N87, 60 mg/kg Q7dx3 iv", "result": 12, "unit": "days"},
      {"measurement": "Median TTE", "setting": "NCI-N87 gastric tumor; NCI-N87, 60 mg/kg Q7dx3 iv, endpoint 800 mm3", "result": 30, "unit": "days"},
      {"measurement": "Survivors not reaching tumor endpoint", "setting": "NCI-N87 gastric tumor; NCI-N87, 60 mg/kg Q7dx3 iv, endpoint 800 mm3 or Day 84", "result": "0/10"},
      {"measurement": "Tumor regression, Complete", "setting": "NCI-N87 gastric tumor; [12]", "result": "0/10"},
      {"measurement": "Tumor regression, Partial", "setting": "NCI-N87 gastric tumor; [12]", "result": "0/10"},
      {"measurement": "TGD", "setting": "MCF-7 breast tumor; MCF-7, 40 mg/kg Q4dx3 iv", "result": 22, "unit": "days"},
      {"measurement": "Median TTE", "setting": "MCF-7 breast tumor; MCF-7, 40 mg/kg Q4dx3 iv, endpoint 700 mm3", "result": 59, "unit": "days"},
      {"measurement": "Survivors not reaching tumor endpoint", "setting": "MCF-7 breast tumor; MCF-7, 40 mg/kg Q4dx3 iv, endpoint 700 mm3 or Day 73", "result": "2/10"},
      {"measurement": "regression responses / regression rate (animals)", "setting": "MCF-7 breast tumor; MCF-7, Q4dx3", "result": "≤ 30", "unit": "%"},
      {"measurement": "Tumor regression, Complete", "setting": "MCF-7 breast tumor; [13]", "result": "3/10"},
      {"measurement": "Tumor regression, Partial", "setting": "MCF-7 breast tumor; [13]", "result": "0/10"},
      {"measurement": "plasma irinotecan AUC", "setting": "[6]", "result": 1.2, "unit": "µg·days/mL"},
      {"measurement": "tumor irinotecan AUC", "setting": "[6]", "result": 4.2, "unit": "µg·days/g"},
      {"measurement": "regression responses (animals)", "setting": "NCI-H460 lung tumor [7]; H460, Q4dx3", "result": "no tumor regression"},
      {"measurement": "TGD", "setting": "NCI-H460 lung tumor [7]; NCI-H460, 40 mg/kg Q4dx3 iv", "result": 11, "unit": "days"},
      {"measurement": "Median TTE", "setting": "NCI-H460 lung tumor [7]; NCI-H460, 40 mg/kg Q4dx3 iv", "result": 23, "unit": "days"},
      {"measurement": "Survivors not reaching tumor endpoint", "setting": "NCI-H460 lung tumor [7]; NCI-H460, 40 mg/kg Q4dx3 iv", "result": "0/10"},
      {"measurement": "TGD", "setting": "NCI-H460 lung tumor [7]; NCI-H460, 90 mg/kg Q4dx3 iv", "result": 12, "unit": "days"},
      {"measurement": "Median TTE", "setting": "NCI-H460 lung tumor [7]; NCI-H460, 90 mg/kg Q4dx3 iv", "result": 24, "unit": "days"},
      {"measurement": "Survivors not reaching tumor endpoint", "setting": "NCI-H460 lung tumor [7]; NCI-H460, 90 mg/kg Q4dx3 iv", "result": "0/10"},
      {"measurement": "Tumor regression, Complete", "setting": "NCI-H460 lung tumor [7]; 40 mg/kg Q4dx3 iv", "result": "0/10"},
      {"measurement": "Tumor regression, Partial", "setting": "NCI-H460 lung tumor [7]; 40 mg/kg Q4dx3 iv", "result": "0/10"},
      {"measurement": "Tumor regression, Complete", "setting": "NCI-H460 lung tumor [7]; 90 mg/kg Q4dx3 iv", "result": "0/10"},
      {"measurement": "Tumor regression, Partial", "setting": "NCI-H460 lung tumor [7]; 90 mg/kg Q4dx3 iv", "result": "0/10"},
      {"measurement": "maximum body weight loss", "setting": "[8]", "result": "≤ 16", "unit": "%"},
      {"measurement": "treatment-related deaths", "setting": "[8]", "result": "no treatment-related deaths"},
      {"measurement": "TGD", "setting": "HT29 colon tumor [9]; HT29, 40 mg/kg Q4dx3 iv", "result": 10, "unit": "days"},
      {"measurement": "Median TTE", "setting": "HT29 colon tumor [9]; HT29, 40 mg/kg Q4dx3 iv", "result": 26, "unit": "days"},
      {"measurement": "Survivors not reaching tumor endpoint", "setting": "HT29 colon tumor [9]; HT29, 40 mg/kg Q4dx3 iv", "result": "0/10"},
      {"measurement": "TGD", "setting": "HT29 colon tumor [9]; HT29, 90 mg/kg Q4dx3 iv", "result": 11, "unit": "days"},
      {"measurement": "Median TTE", "setting": "HT29 colon tumor [9]; HT29, 90 mg/kg Q4dx3 iv", "result": 27, "unit": "days"},
      {"measurement": "Survivors not reaching tumor endpoint", "setting": "HT29 colon tumor [9]; HT29, 90 mg/kg Q4dx3 iv", "result": "0/10"},
      {"measurement": "regression responses (animals)", "setting": "HT29 colon tumor [9]; HT29, Q4dx3", "result": "no tumor regression"},
      {"measurement": "Tumor regression, Complete", "setting": "HT29 colon tumor [9]; 40 mg/kg Q4dx3 iv", "result": "0/10"},
      {"measurement": "Tumor regression, Partial", "setting": "HT29 colon tumor [9]; 40 mg/kg Q4dx3 iv", "result": "0/10"},
      {"measurement": "Tumor regression, Complete", "setting": "HT29 colon tumor [9]; 90 mg/kg Q4dx3 iv", "result": "0/10"},
      {"measurement": "Tumor regression, Partial", "setting": "HT29 colon tumor [9]; 90 mg/kg Q4dx3 iv", "result": "0/10"},
      {"measurement": "single-dose LD10", "setting": "[10]", "result": "~ 120 mg/kg"},
      {"measurement": "time post-dose at which concentrations fall below 0.1 ng/mL", "setting": "[3]", "result": "5 to 7", "unit": "days"}
    ]}
  ]
}
